Experiment [1] deals with T1, glycine transporter-1 (GlyT-1) (Homo sapiens, UniProt P48067).
T1 construct: JAR cells (ATCC#HTB-144), which endogenously express GlyT-1; host or cells: JAR human choriocarcinoma cells
T1 sequence (P48067 1-706): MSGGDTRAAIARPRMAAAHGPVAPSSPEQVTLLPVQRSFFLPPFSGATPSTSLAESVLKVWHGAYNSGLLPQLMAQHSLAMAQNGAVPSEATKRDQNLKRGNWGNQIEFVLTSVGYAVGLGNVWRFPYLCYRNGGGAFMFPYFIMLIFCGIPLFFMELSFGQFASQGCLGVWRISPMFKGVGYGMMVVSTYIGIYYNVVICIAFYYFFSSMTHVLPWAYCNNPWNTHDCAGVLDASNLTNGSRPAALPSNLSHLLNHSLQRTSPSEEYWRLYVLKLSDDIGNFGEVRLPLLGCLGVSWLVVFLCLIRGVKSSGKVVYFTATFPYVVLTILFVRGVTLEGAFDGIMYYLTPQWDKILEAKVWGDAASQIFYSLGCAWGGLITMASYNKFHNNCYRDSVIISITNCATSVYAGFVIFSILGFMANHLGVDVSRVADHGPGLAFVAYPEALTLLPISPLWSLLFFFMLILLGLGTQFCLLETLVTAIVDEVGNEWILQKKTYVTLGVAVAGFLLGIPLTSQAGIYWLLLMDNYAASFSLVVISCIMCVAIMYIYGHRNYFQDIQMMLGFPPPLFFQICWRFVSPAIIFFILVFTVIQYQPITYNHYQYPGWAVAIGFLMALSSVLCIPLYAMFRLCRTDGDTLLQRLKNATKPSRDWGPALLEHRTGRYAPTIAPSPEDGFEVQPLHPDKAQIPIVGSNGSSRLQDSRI
The experiment is described as follows: [14C]glycine uptake assay in JAR cells endogenously expressing GlyT-1 (scintillation proximity). Format: cell-based. The following applies: JAR cells, [14C]glycine 5 μM, 3 hour incubation; read-out: GlyT-1 IC50. An outline of the steps:
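Human choriocarcinoma JAR cells (endogenous GlyT-1) attached overnight, then pre-incubated 10 min at room temperature with compound in pH 7.4 Hepes uptake buffer containing 5 mM alanine and 0.75% DMSO. Uptake of 5 μM [14C]glycine over 3 h at 37 °C read by scintillation proximity; IC50 from four-parameter fit of nine-point curves.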

In experiment [2] the target is T2, glycine transporter-2 (GlyT-2) (Homo sapiens, UniProt Q9Y345).
T2 construct: expressed in transfected cells
T2 sequence (Q9Y345 1-797): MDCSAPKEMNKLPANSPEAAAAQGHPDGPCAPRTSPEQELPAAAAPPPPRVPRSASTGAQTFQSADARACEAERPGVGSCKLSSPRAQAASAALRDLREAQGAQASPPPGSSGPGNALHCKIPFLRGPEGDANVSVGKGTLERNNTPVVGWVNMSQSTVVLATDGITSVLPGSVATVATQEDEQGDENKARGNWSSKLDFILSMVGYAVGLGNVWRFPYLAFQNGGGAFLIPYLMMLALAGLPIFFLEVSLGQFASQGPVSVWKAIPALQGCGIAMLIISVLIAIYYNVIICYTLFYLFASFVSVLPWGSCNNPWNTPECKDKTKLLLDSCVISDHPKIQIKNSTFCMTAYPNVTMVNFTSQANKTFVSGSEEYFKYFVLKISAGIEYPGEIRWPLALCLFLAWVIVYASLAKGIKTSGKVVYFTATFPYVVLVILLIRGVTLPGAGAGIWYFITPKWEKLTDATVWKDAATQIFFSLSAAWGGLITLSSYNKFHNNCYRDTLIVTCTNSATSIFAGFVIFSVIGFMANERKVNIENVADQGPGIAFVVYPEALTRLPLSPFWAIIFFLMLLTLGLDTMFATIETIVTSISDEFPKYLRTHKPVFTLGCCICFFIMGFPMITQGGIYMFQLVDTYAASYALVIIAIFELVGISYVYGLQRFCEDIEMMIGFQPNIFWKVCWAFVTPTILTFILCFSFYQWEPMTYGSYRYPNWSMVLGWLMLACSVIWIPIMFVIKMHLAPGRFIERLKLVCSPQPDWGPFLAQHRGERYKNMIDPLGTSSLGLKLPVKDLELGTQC
Put plainly: [14C]glycine uptake assay in HEK-GlyT-2 transfected cells. The following applies: HEK-GlyT-2 cells. It counts as cell-based.

Usually IC50 stands for the midpoint of a concentration-inhibition curve.

Structures can show the parent of a compound that is named as a salt. Bounds are passed on as bounds.

Regarding `CCCS(=O)(=O)N1CCN(C2(CNC(=O)c3c(N)cccc3F)CCCCC2)CC1` [compound 41, 2-Amino-6-fluoro-N-((1-(4-(propylsulfonyl)piperazin-1-yl)cyclohexyl)methyl) benzamide Hydrochloride], the half-maximal inhibitory concentration (IC50) was 71 nM in experiment [1] and more than 75000 nM in experiment [2].

Take `CCS(=O)(=O)N1CCN(C2(CNC(=O)c3c(Cl)cccc3Cl)CCCCCC2)CC1` [compound 88, 2,6-Dichloro-N-((1-(4-(ethylsulfonyl)piperazin-1-yl)cycloheptyl)methyl) benzamide Hydrochloride]: the IC50 in experiment [1] is 195 nM; in experiment [2], more than 75000 nM.

As to `Cn1cnc(S(=O)(=O)N2CCN(C3(CNC(=O)c4c(F)cccc4F)CCCCCC3)CC2)c1` [compound 107, 2,6-Difluoro-N-((1-(4-(1-methyl-1H-imidazol-4-ylsulfonyl)piperazin-1-yl)cycloheptyl)methyl) benzamide Hydrochloride], the IC50 is 9 nM in experiment [1] and more than 75000 nM in experiment [2].

Turning to `CCCS(=O)(=O)N1CCN(C2(CNC(=O)c3ccccc3F)CCCCCC2)CC1` [compound 63, 2-Fluoro-N-((1-(4-(propylsulfonyl)piperazin-1-yl)cycloheptyl)methyl) benzamide Hydrochloride], the IC50 in experiment [1] is 99 nM; in experiment [2] it was more than 75000 nM.

`CCCS(=O)(=O)N1CCN(C2(CNC(=O)c3ccc(-c4ccccc4)cc3)CCCCC2)CC1` [compound 38, N-((1-(4-(Propylsulfonyl)piperazin-1-yl)cyclohexyl)methyl) biphenyl-4-carboxamide Hydrochloride]: the figures for the half-maximal inhibitory concentration (IC50) in experiment [1] and in experiment [2] were 172 nM and 1400 nM, respectively.

On to `CCCS(=O)(=O)N1CCN(C2(CNC(=O)c3ccc(Br)cc3)CCCCC2)CC1` [compound 11, 4-Bromo-N-((1-(4-(propylsulfonyl)piperazin-1-yl)cyclohexyl)methyl) benzamide Hydrochloride], for which the values for the IC50 in experiment [1] and in experiment [2] were 222 nM and more than 75000 nM, respectively.

In the case of `CCCS(=O)(=O)N1CCN(C2(CNC(=O)c3ccc(OCc4ccccc4)cc3)CCCCC2)CC1` [compound 27, 4-(Benzyloxy)-N-((1-(4-(propylsulfonyl)piperazin-1-yl)cyclohexyl)methyl) benzamide Hydrochloride], the IC50 in experiment [1] was found to be 549 nM; in experiment [2], 635 nM.

As for `CCCS(=O)(=O)N1CCN(C2(CNC(=O)c3cccc(C(F)(F)F)c3Cl)CCCCCC2)CC1` [compound 59, 2-Chloro-N-((1-(4-(propylsulfonyl)piperazin-1-yl)cycloheptyl)methyl)-3-(trifluoromethyl) benzamide Hydrochloride], the IC50 was 128 nM in experiment [1] and more than 75000 nM in experiment [2].

Consider `CCCS(=O)(=O)N1CCN(C2(CNC(=O)c3ccc(Cl)cc3C3CC3)CCC(F)(F)CC2)CC1` [compound 253, 4-Chloro-2-cyclopropyl-N-((4,4-difluoro-1-(4-(propylsulfonyl)piperazin-1-yl)cyclohexyl)methyl) benzamide Hydrochloride], for which the IC50 is 21 nM in experiment [1] and more than 75000 nM in experiment [2].

For the compound `Cn1cnc(S(=O)(=O)N2CCN(C3(CNC(=O)c4c(Cl)cccc4C(F)(F)F)CCC(F)(F)CC3)CC2)c1` [compound 185, 2-Chloro-N-((4,4-difluoro-1-(4-(1-methyl-1H-imidazol-4-ylsulfonyl)piperazin-1-yl)cyclohexyl)methyl)-6-(trifluoromethyl)benzamide Hydrochloride], the IC50 in experiment [1] was 6 nM; in experiment [2], more than 75000 nM.

In the case of `COc1cc(F)cc(C)c1C(=O)NCC1(N2CCN(S(=O)(=O)c3cn(C)cn3)CC2)CCCC1` [compound 103, 4-Fluoro-2-methoxy-6-methyl-N-((1-(4-(1-methyl-1H-imidazol-4-ylsulfonyl)piperazin-1-yl)cyclopentyl)methyl) benzamide Hydrochloride], the IC50 in experiment [1] is 45 nM; in experiment [2] it was more than 75000 nM.

Regarding `CCCS(=O)(=O)N1CCN(C2(CNC(=O)c3c(C)cc(F)cc3OC)CCOCC2)CC1` [compound 121, 4-Fluoro-2-methoxy-6-methyl-N-((4-(4-(propylsulfonyl)piperazin-1-yl)tetrahydro-2H-pyran-4-yl)methyl)benzamide Hydrochloride], the IC50 in experiment [1] is 191 nM; in experiment [2] it was more than 45000 nM.

Regarding `CCCS(=O)(=O)N1CCN(C2(CNC(=O)c3ccc(C(F)(F)F)cc3)CCCCC2)CC1` [compound 7, N-((1-(4-(Propyl-sulfonyl)piperazin-1-yl)cyclohexyl)methyl)-4-(trifluoromethyl) benzamide Hydrochloride], the values for the IC50 in experiment [1] and in experiment [2] were 126 nM and more than 30000 nM, respectively.

`Cn1cnc(S(=O)(=O)N2CCN(C3(CNC(=O)c4ccc(F)cc4Cl)CCCCC3)CC2)c1` [compound 101, 2-Chloro-4-fluoro-N-((1-(4-(1-methyl-1H-imidazol-4-ylsulfonyl)piperazin-1-yl)cyclohexyl)methyl) benzamide Hydrochloride]: the IC50 in experiment [1] is 2 nM; in experiment [2] it was more than 75000 nM.

Regarding `CCCS(=O)(=O)N1CCN(C2(CNC(=O)c3c(OC)cc(F)cc3SC)CCC(F)(F)CC2)CC1` [compound 138, N-((4,4-Difluoro-1-(4-(propylsulfonyl)piperazin-1-yl)cyclohexyl)methyl)-4-fluoro-2-methoxy-6-(methylthio)benzamide Hydrochloride], the IC50 is 25 nM in experiment [1] and more than 75000 nM in experiment [2].

As for `CCCS(=O)(=O)N1CCN(C2(CNC(=O)c3c(C)cc(F)cc3OC)CCC(F)(F)CC2)CC1` [compound 137, N-((4,4-Difluoro-1-(4-(propylsulfonyl)piperazin-1-yl)cyclohexyl)methyl)-4-fluoro-2-methoxy-6-methylbenzamide Hydrochloride], the results for the IC50 in experiment [1] and in experiment [2] were 28 nM and more than 75000 nM, respectively.

In the case of `CCCS(=O)(=O)N1CCN(C2(CNC(=O)c3ccc(F)cc3OC)CCCCCC2)CC1` [compound 52, 4-Fluoro-2-methoxy-N-((1-(4-(propylsulfonyl)piperazin-1-yl)cycloheptyl)methyl) benzamide Hydrochloride], the figures for the IC50 in experiment [1] and in experiment [2] were 404 nM and more than 75000 nM, respectively.

In the case of `COc1cc(F)cc(C)c1C(=O)NCC1(N2CCN(S(=O)(=O)CC3CC3)CC2)CCCCCC1` [compound 86, N-((1-(4-(Cyclopropylmethyl-sulfonyl)piperazin-1-yl)cycloheptyl)methyl)-4-fluoro-2-methoxy-6-methylbenzamide Hydrochloride], the results for the 50% inhibitory concentration (IC50) in experiment [1] and in experiment [2] were 99 nM and more than 75000 nM, respectively.

As for `O=C(NCC1(N2CCN(S(=O)(=O)C3CCC3)CC2)CCCCC1)c1ccc(Cl)cc1Cl` [compound 93, 2,4-Dichloro-N-((1-(4-(cyclobutylsulfonyl)piperazin-1-yl)cyclohexyl)methyl)benzamide Hydrochloride], the half-maximal inhibitory concentration (IC50) is 319 nM in experiment [1] and more than 75000 nM in experiment [2].

Turning to `CCS(=O)(=O)N1CCN(C2(CNC(=O)c3ccc(C(F)(F)F)cc3Cl)CCC(F)(F)CC2)CC1` [compound 203, 2-Chloro-N-((1-(4-(ethylsulfonyl)piperazin-1-yl)-4,4-difluorocyclohexyl)methyl)-4-(trifluoromethyl) benzamide Hydrochloride], the results for the IC50 in experiment [1] and in experiment [2] were 94 nM and more than 75000 nM, respectively.

Turning to `CCS(=O)(=O)N1CCN(C2(CNC(=O)c3c(C)cc(F)cc3OC)CCCCCC2)CC1` [compound 87, N-((1-(4-(Ethylsulfonyl)piperazin-1-yl)cycloheptyl)methyl)-4-fluoro-2-methoxy-6-methylbenzamide Hydrochloride], the IC50 is 155 nM in experiment [1] and more than 75000 nM in experiment [2].

For the origin of these results see patent publication US9045445B2, “Glycine transporter-1 inhibitors, methods of making them, and uses thereof” (Albany Molecular Research, Inc., priority 2010, dated 2015).
